Source: patent US20170082611A1, “Methods for Inhibiting Epithelial to Mesenchymal Transition by Inhibition of FOXS1” (Regenerative Research Foundation, priority 2015, published 2017)

Experiments:
RPE cells [1] = assay: p38 blockade in TnT-induced RPE EMT (masses and EMT transcripts); assay type: cell-based, human; details: TnT + 10 ng/ml SB202190, 5 days
Method: It was next reasoned that, if p38 is involved in the TnT-induced gene changes observed in SNAIL, SLUG and TWIST transcripts, then blocking p38 should result in the loss of TnT-induced EMT changes. Therefore an experiment was conducted to examine RPE-EMT with an additional condition of TnT+the p38 inhibitor SB202190.

RPE cells [2] = assay: FOXS1 expression in EMT+p38 inhibitor condition; assay type: cell-based, human; details: TnT + p38 inhibitor, 5 days
RPE cells [3] = assay: Screening assay for agents that induce EMT: RPE morphology by light microscope; assay type: cell-based, human; details: 10 ng/ml, 5 days, DMEM/F12 with 5% FBS
Method: RPE were plated at a confluency of 30,000 cells in 1 well of a 24-well plate in DMEM/F12 with 5% FBS, adding TGFβ (10 ng/ml) or TNFα (10 ng/ml), or both. After 5 days, RPE morphology was assessed by a light microscope.

p38 = p38 immunostaining (localization) in RPE cells; details: DMEM 5% FBS, 5 days
[4] = tested on: hTERT HMEnt (HME) breast epithelial cell line; assay: EMT and FOXS1 transcripts in breast epithelial cells
Primary human RPE lines = assay: qPCR of EMT and RPE fate transcripts in primary RPE cultured with NAM for 21 days; assay type: cell-based; details: 10 mM NAM, versus vehicle
Method: Cadaver donor globes were received from the National Disease Research Interchange (Philadelphia, Pa., USA), and RPE cells were isolated and grown to establish a RPE monolayer (Blenkinsop et al., (2015), Investigative Ophthalmology & Visual Science 56, 7085-7099; Blenkinsop et al., (2013), Methods Mol Biol 945, 45-65.). Primary human RPE lines were cultured in the presence of Nicotinamide (NAM) (Cat. #N0636; Sigma) at a concentration of 10 mM or vehicle (cell culture grade water) for 21 days. […] Additionally, RPE fate associated protein transcripts were tested by qPCR.

RPE cells [5] = assay: Effect of NAM in the TNT-induced EMT model, qPCR; assay type: cell-based, human; details: 10 mM NAM
Method: In a parallel experiment, the effect of NAM was tested in an EMT model. EMT was induced in RPE cells using 10 ng/ml TGFβ1 and TNFα. RPE cells were trypsinized and passaged into a 24 well plate. 24 hours after passaging, RPE cells were treated with TGFβ1 and TNFα (TNT condition) for 7 days. To test the effect of NAM, we added 10 mM NAM or vehicle to the medium used for EMT model (using TNT). EMT associated protein transcripts including FOXS1 were analyzed by qPCR.

Compound: Oc1ccc(-c2nc(-c3ccncc3)c(-c3ccc(F)cc3)[nH]2)cc1 [SB202190]
- SLUG transcription (RPE cells [1]): stayed at or near control levels
- SNAIL transcription (RPE cells [1]): stayed at or near control levels
- TWIST transcription (RPE cells [1]): stayed at or near control levels
- growth of three dimensional masses (RPE cells [1]): did not grow
- FOXS1 gene transcription (RPE cells [2]): elevated in the TnT condition, but not when the p38 inhibitor was added

Compound: TGFβ: cytokine used at 10 ng/ml to induce EMT
- RPE morphology (RPE cells [3]): acquired a fibroblastic morphology
- p38 localization (p38): localized predominantly perinuclearly
- FOXS1 transcript [4]: increased

Compound: TNFα
- RPE morphology (RPE cells [3]): acquired a fibroblastic morphology
- p38 localization (p38): found cytoskeletally

Compound: NC(=O)c1cccnc1 [NAM, Nicotinamide]
- EMT associated marker FOXS1 (Primary human RPE lines): inhibited
- EMT associated marker SNAIL (Primary human RPE lines): inhibited
- RPE marker BEST1 expression (Primary human RPE lines): increased expression
- RPE marker RPE65 expression (Primary human RPE lines): increased expression
- EMT marker SNAIL (RPE cells [5]; as early as day 1 post induction of EMT): inhibited
- EMT marker FOXS1 (RPE cells [5]; by day 3 post induction of EMT): clear inhibition
- EMT marker SLUG (RPE cells [5]; by day 5 post induction of EMT): clear inhibition
